Assays:
MMP-9 = experiment: TNFα-induced MMP-9 production of U937 monocytes (ELISA of conditioned media); assay type: cell-based, Human; conditions: for MMP-9 production, Average: U937 cells, 24 hours, conditioned media ELISA
Experimental: U937 cells and RPMI 1640 culture medium were obtained from ATCC. Human MMP-9 ELISA Kit (QUANTIKINE) was obtained from R&D Systems. Fetal Bovine Serum (FBS) was obtained from VWR, and the penicillin-streptomycin solution and Tumor Necrosis Factor α (TNFα) were obtained from Sigma.
Human leukemia U937 monocyte lymphoma cells were cultured in RPMI 1640 medium supplemented with 10% FBS and 1% Penicillin-Streptomycin solution. Cells were incubated at 37° C. in a humidified atmosphere containing 5% CO2 and 95% air. Before treatment, cells were transferred into RPMI containing 1% FBS for overnight. Cells were plated on a 48 well plate. Cell culture medium included either TNFα (250 ng/mL), Triclosan(1 ppm), or both agents together or no agent (control). Cells were incubated after treatment for 24 hours. Conditioned media were collected and store at −80° C. until analysis. Samples of conditioned media were subjected to enzyme-linked immunosorbent assays (ELISA) for MMP-9, according to commercial ELISA protocol (FIG. 1).

MMP-13 = experiment: PTH-induced MMP-13 expression in UMR 106-01 osteoblast cells (real time quantitative RT-PCR); assay type: cell-based, Rat
Experimental: Parathyroid hormone (rat PTH 1-34) was purchased from Sigma. UMR 106-01 cells were cultured in Eagle's minimal essential medium (EMEM) supplemented with 25 mM Hepes pH 7.4, 1% nonessential amino acids, 100 units/rill penicillin, 100 μg/ml streptomycin. 5% fetal bovine serum. Real Time Quantitative RT-PCR was conducted according to the following method: UMR 106-01 cells were seeded in 12-well plates and cultured for 2-3 days in cell culture media. When cells were confluent, cell culture media was exchanged with 1% fetal bovine serum for overnight for cell starvation. Cells were pre-incubated with triclosan or a triclosan-containing dentifrice (see. e.g., U.S. Pat. Nos. 4,894,220, 5,032,386, and related patents) for 15 min and then incubated with PTH (10^−8 M) for 4 hours.
Total RNA was isolated from UMR 106-01 cells stimulated with or without PTH with TRIzol reagent. Total RNA (0.1 μg) was reverse-transcribed to cDNA using the Invitrogen SUPERSCRIPT kit according to the manufacturer's instructions. All cDNAs were amplified by adding 2.5 μl of cDNA to the PCR mixture (22.5 μl) containing each primer (0.2 μM) and 12.5 μl of the Platinum SYBR Green qPCR SuperMix UDG (Invitrogen). The reactions were preincubated at 50° C. for 2 minutes to decontaminate dU-containing DNA by UDG, then at 95° C. for 2 minutes to inactivate UDG and activate Taq. The PCR program continued 49 cycles of denaturation at 95° C. for 15 seconds, annealing and elongation of the primers at 60° C. for 30 seconds. Relative quantification of gene expression was determined by using the 2-delta delta CT method where fold changes in gene expression are relative to control samples. All samples were normalized to β-actin.
All results were expressed as means±standard error (S.E.) of triplicate measurements with all experiments being repeated at least three times. Statistical analyses were carried out using the Student's t test.

[1] = with PEG 600, weight ratio of 25 triclosan:1 PEG 600, versus absence of polyethylene glycol; cited from earlier work

| Compound | MMP-9 production, Average (MMP-9; TNFα 250 ng/mL alone) [ng/mL] | effect on MMP-9 level in TNFα stimulated U937 cells (MMP-9; Triclosan at 1 ppm) | MMP-9 production, Average (MMP-9; TNFα 250 ng/mL + Triclosan 1 ppm) [ng/mL] | MMP-13 expression, Average (fold change relative to control, normalized to β-actin) (MMP-13; Triclosan 1 ppm + PTH 10^−8 M, 15 min pre-incubation, 4 hours) | MMP-13 expression, Average (fold change relative to control, normalized to β-actin) (MMP-13; Triclosan 1 ppm, without PTH) | MMP-13 expression, Average (fold change relative to control, normalized to β-actin) (MMP-13; Triclosan 4 ppm + PTH 10^−8 M, 15 min pre-incubation, 4 hours) | MMP-13 expression, Average (fold change relative to control, normalized to β-actin) (MMP-13; Triclosan 4 ppm, without PTH) | MMP-13 expression, Average (fold change relative to control, normalized to β-actin) (MMP-13; Triclosan 10 ppm + PTH 10^−8 M, 15 min pre-incubation, 4 hours) | MMP-13 expression, Average (fold change relative to control, normalized to β-actin) (MMP-13; Triclosan 10 ppm, without PTH) | effect on MMP-13 expression in PTH stimulated UMR cells (MMP-13; Triclosan at 10 ppm, 4 ppm and 1 ppm) | factor by which antibacterial activity is reduced [1] |
| --- | --- | --- | --- | --- | --- | --- | --- | --- | --- | --- | --- |
| TNFα | 0.275 | – | – | – | – | – | – | – | – | – | – |
| Oc1cc(Cl)ccc1Oc1ccc(Cl)cc1Cl [Triclosan, 2,4,4′-trichloro-2′-hydroxydiphenyl ether] | – | significantly reduced | 0.155 | 35.38 | 0.4166 | 10.56 | 1.424 | 3.012 | 1.518 | significantly reduced | 10-20 |

Source: patent US8637266B2, “Anti bone-loss and anti attachment-loss effects of an oral composition” (Colgate-Palmolive Company, priority 2009, dated 2014)
